Counter-ions that a name gives are not always drawn. Like-named read-outs stand apart in the source and are kept apart here.

Experiment [1] has as its target T1, dopamine transporter (Rattus norvegicus, UniProt P23977).
T1 construct: Corpus striatum from male Wistar rats (150-200 g) is homogenized; from tissue; host or cells: corpus striatum of male Wistar rats
The experiment can be described thus: In vitro inhibition of ^3 H-WIN 35428 binding (corpus striatum). Further details: species or system rat (male Wistar). The source says: The compounds of the present invention have been tested for their ability to bind to the dopamine transporter in the following tests for in vitro and in vivo inhibition of ^3 H-WIN 35428.
In vitro inhibition of ^3 H-WIN 35428 binding
Dopamine transporters/uptake sites on nerve terminals presumably function to terminate neuronal signaling by removing dopamine from the synaptic cleft. The activity or presence of the dopamine transporter integral protein can be measured in vitro with synaptosomal uptake of ^3 H-dopamine or membrane binding assays with ^3 H-ligands known to bind to the transporter.
Numerous ligands of several structural types have been reported to bind at the dopamine uptake site, but it remains questionable whether their binding sites are identical to that of cocaine.
Tissue preparation: Preparations are performed at 0°-4° C. unless otherwise indicated. Corpus striatum from male Wistar rats (150-200 g) is homogenized for 5-10 sec in 10 ml NaH2 PO4 (50 mM, pH 7.4) using an Ultra-Turrax homogenizer. The suspension is centrifuged at 27,000×g for 15 min. The supernatant is discarded and the pellet is resuspended in 50 mM NaH2 PO4, pH 7.4 (1000 ml per g of original tissue) and used for binding assays.
Assay: Aliquots of 0.5 ml tissue are added to […] of ^3 H-WIN 35428 (1 nM, final concentration), mixed and incubated for 60 min at 2° C. Non-specific binding is determined using cocaine ([…], final concentration). After incubation the samples are added 5 ml of ice-cold buffer and poured directly onto Whatman GF/C glass fibre filters under suction and immediately washed with 5 ml ice-cold buffer. The amount of radioactivity on the filters is determined by conventional liquid scintillation counting. Specific binding is total binding minus non-specific binding.
25-75% inhibition of specific binding must be obtained, before calculation of an IC50. The test value is given as IC50 (the concentration (μM) of the test substance which inhibits the specific binding of ^3 H-WIN 35428 by 50%).

The target in experiment [2] is T2, dopamine transporter (Mus musculus, UniProt Q61327). Nature of the experiment: In vivo inhibition of ^3 H-WIN 35428 binding (striatum). Set-up: from tissue; host or cells: striatum of living female NMRI mice; species or system mice (female NMRI). As to conditions: ip, mice, inhibition of specific ^3 H-WIN 35428 binding in striatum. How it is done:
All test substances used are solutions or suspensions prepared in 10% TWEEN 80. Groups of three female NMRI mice (25 g) are injected i.p. with the test substance. […] Tissues are weighed and dissolved for 36 h with 1 ml 2% sodium-laurylsulfat. The solubilized tissue is then added 2 ml of scintillation cocktail, and the amount of radioactivity per mg of tissue is counted by conventional liquid scintillation counting. Groups of untreated mice serves as controls.
The ED50 value is determined from dose response curves.
ED50 =(administered dose, mg/kg)×1/(C0 /Cx -1), where C0 is specific binding in controls and Cx is the specific binding in mice treated with test substance.

Experiment [3] relates to immobility time of mice suspended by the tail. Nature of the experiment: Tail Suspension. The experiment is classed as in vivo, mice (female NMRI). The conditions noted are these: Mus musculus, 0.5 h, oral, 30 min before test, dose reducing the immobility to 100 sec. Here is the method: A decrease in the immobility time by mice suspended in their tail is seen after systemic administration of central stimulants and by antidepressants (Steru, L., Chermat, R., Thierry, B. & Simon, P. (1985) The tail suspension test: A new method for screening antidepressants in mice. Psychopharmacology 85:367-370.).
Female NMRI mice (20-25 g) habituated to the room (12 hours light/dark) for at least 16 hours and housed 25 per cage are used. The mice are suspended by the tail with adhesive tape to a rod 30 cm above the lab. bench 30 min after an oral administation of vehicle or drug. For the next 6 min the accumulated duration of immobility defined as no movements by the body or extremities (however head movements are not defined as movements) are noted, Six mice per dose are used.
Saline or vehicle treated mice have immobility time scores between 160-180 sec in average. An ED50 -value is calculated by graphical interpolation from at least 3 doses as the dose reducing the immobility to 100 sec.

The target in experiment [4] is T2, dopamine transporter. As to conditions: cited from earlier work.
Setting [5] is: rat corpus striatum, ^3 H-WIN 35428 1 nM, 60 min at 2° C., read-out: in vitro IC50.

T1 sequence (P23977 whole entry): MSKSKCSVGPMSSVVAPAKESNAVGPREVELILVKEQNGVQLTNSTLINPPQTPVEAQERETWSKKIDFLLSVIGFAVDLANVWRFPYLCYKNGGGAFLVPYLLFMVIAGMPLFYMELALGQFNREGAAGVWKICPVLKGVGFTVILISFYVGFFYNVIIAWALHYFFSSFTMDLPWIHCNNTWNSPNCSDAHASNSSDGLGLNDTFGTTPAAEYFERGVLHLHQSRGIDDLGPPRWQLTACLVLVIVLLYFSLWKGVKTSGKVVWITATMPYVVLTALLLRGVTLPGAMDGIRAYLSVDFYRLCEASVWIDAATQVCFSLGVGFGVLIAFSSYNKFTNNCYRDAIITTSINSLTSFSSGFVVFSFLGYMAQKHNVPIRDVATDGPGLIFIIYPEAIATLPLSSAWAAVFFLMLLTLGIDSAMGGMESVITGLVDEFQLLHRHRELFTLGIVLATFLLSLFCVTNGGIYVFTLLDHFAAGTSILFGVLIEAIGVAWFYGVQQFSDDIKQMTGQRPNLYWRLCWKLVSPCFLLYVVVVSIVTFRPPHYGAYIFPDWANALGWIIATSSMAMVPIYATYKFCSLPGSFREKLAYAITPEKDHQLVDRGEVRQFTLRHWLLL
T2 sequence (Q61327 whole entry): as the sequence (P23977 whole entry) above, with S21P, A57V, A194S, H600R, L619V counted along it

The term IC50 denotes the concentration at which inhibition is half-maximal. Consider `CC(C)CON=C[C@@H]1[C@@H](c2ccc(Cl)c(Cl)c2)C[C@@H]2CC[C@H]1N2C` [(1R,2R,3S)-3-(3,4-Dichlorophenyl)tropane-2-O-(2-methylpropyl)-aldoxime hydrochloride], for which the IC50 in experiment [1] (setting [5]) turned out to be 0.056 µM.

For the compound `C=CCON=C[C@@H]1[C@@H](c2ccc(Cl)c(Cl)c2)C[C@@H]2CC[C@H]1N2C` [(1R,2R,3S)-3-(3,4-Dichlorophenyl)tropane-2-O-(2-propenyl)-aldoxime hydrochloride], the IC50 in experiment [1] (setting [5]) was found to be 0.022 µM.

With `C#CCON=C[C@@H]1[C@@H](c2ccc(Cl)c(Cl)c2)C[C@@H]2CC[C@H]1N2C` [(1R,2R,3S)-3-(3,4-Dichlorophenyl)tropane-2-O-(2-propynyl)-aldoxime hydrochloride], the half-maximal inhibitory concentration (IC50) in experiment [1] (setting [5]) amounted to 0.019 µM.

On to `CN1[C@H]2CC[C@@H]1[C@H](C=NOCC1CC1)[C@@H](c1ccc(Cl)c(Cl)c1)C2` [(1R,2R,3S)-3-(3,4-Dichlorophenyl)tropane-2-O-cyclopropylmethyl-aldoxime hydrochloride], for which, in experiment [1] (setting [5]), the IC50 turned out to be 0.02 µM.

Usually ED50 stands for the dose that gives a 50% effect, or the effect in half of the subjects. Read a high ED50 as weaker potency. As to `CCOC(=O)CON=C[C@@H]1[C@@H](c2ccc(Cl)c(Cl)c2)C[C@@H]2CC[C@H]1N2C` [(1R,2R,3S)-3-(3,4-Dichlorophenyl)tropane-2-O-ethoxycarbonylmethyl-aldoxime,hydrochloride], in experiment [1] (setting [5]), the IC50 came to 0.024 µM. This compound also returned an ED50 in experiment [2] of over 10 mg/kg.

The compound `CN1[C@H]2CC[C@@H]1[C@H](C=NO)[C@@H](c1ccc(Cl)c(Cl)c1)C2` [(1R,2R,3S)-3-(3,4-Dichlorophenyl)tropane-2-aldoxime] registered an IC50 in experiment [1] of 0.0034 µM. Moreover, the ED50 came to 0.41 mg/kg in experiment [3] and 3.8 mg/kg in experiment [2].

In the case of `CC(C)CON=C[C@@H]1[C@@H](c2ccc(Cl)c(Cl)c2)C[C@@H]2CC[C@H]1N2C` [(1R,2R,3S)-3-(3,4-dichlorophenyl)-tropane-2-O-(2-methylpropyl)-aldoxime], the ED50 in experiment [3] amounted to 0.8 mg/kg.

In turn, `C=CCON=C[C@@H]1[C@@H](c2ccc(Cl)c(Cl)c2)C[C@@H]2CC[C@H]1N2C` [(1R,2R,3S)-3-(3,4-dichlorophenyl)-tropane-2-O-(2-propenyl)-aldoxime] returned an ED50 in experiment [3] of 0.23 mg/kg.

As for `C#CCON=C[C@@H]1[C@@H](c2ccc(Cl)c(Cl)c2)C[C@@H]2CC[C@H]1N2C` [(1R,2R,3S)-3-(3,4-dichlorophenyl)-tropane-2-O-(2-propynyl)-aldoxime], it took a dose of 0.04 mg/kg to reach the 50% effect level in experiment [3] (ED50).

For the compound `CN1[C@H]2CC[C@@H]1[C@H](C=NOCc1ccccc1)[C@@H](c1ccc(Cl)c(Cl)c1)C2` [(1R,2R,3S)-3-(3,4-dichlorophenyl)-tropane-2-O-benzyl-aldoxime, HCl], the concentration for half-maximal inhibition (IC50) in experiment [1] (setting [5]) came out at 0.076 µM. In addition, the ED50 in experiment [3] was 2 mg/kg; in experiment [2], over 10 mg/kg.

The compound `CN1[C@H]2CC[C@@H]1[C@H](C=NOCC1CC1)[C@@H](c1ccc(Cl)c(Cl)c1)C2` [(1R,2R,3S)-3-(3,4-dichlorophenyl)-tropane-2-O-cyclopropylmethyl-aldoxime] came in with an ED50 in experiment [3] of 0.7 mg/kg.

With `COC(=O)CON=C[C@@H]1[C@@H](c2ccc(Cl)c(Cl)c2)C[C@@H]2CC[C@H]1N2C` [(1R,2R,3S)-3-(3,4-dichlorophenyl)tropane-2-O-methoxycarbonylmethyl-aldoxime], in experiment [3], the ED50 is 0.25 mg/kg.

Turning to `CON=C[C@@H]1[C@@H](c2ccc(Cl)cc2)C[C@@H]2CC[C@H]1N2C` [(1R,2R,3S)-3-(4-chlorophenyl)tropane-2-O-methylaldoxime hydrochloride], the IC50 in experiment [1] (setting [5]) was determined as 0.048 µM. Further, the results for the ED50 in experiment [3] and in experiment [2] were 0.43 mg/kg and 1 mg/kg, respectively.

`CN1[C@H]2CC[C@@H]1[C@H](C=NO)[C@@H](c1ccc(Cl)cc1)C2` [(1R,2R,3S)-3-(4-chlorophenyl)tropane-2-aldoxime]: the IC50 in experiment [1] came out at 0.013 µM. Further, the ED50 in experiment [3] was found to be 0.19 mg/kg; in experiment [2], 1.05 mg/kg.

`CON=C[C@@H]1[C@@H](c2ccc(C)cc2)C[C@@H]2CC[C@H]1N2C` [(1R,2R,3S)-3-(4-methylphenyl)tropane-2-O-methyl-aldoxime hydrochloride]: the IC50 in experiment [1] (setting [5]) was determined as 0.042 µM.

The compound `CN1[C@H]2CC[C@@H]1[C@@H](C=NOCc1ccccc1)[C@@H](c1ccc(Cl)c(Cl)c1)C2` [(1R,2S,3S)-3-(3,4-dichlorophenyl)tropane-2-O-benzyl-aldoxime, hydrochloride] showed an ED50 in experiment [3] of 0.94 mg/kg.

As to `CON=C[C@H]1[C@@H](c2ccc(Cl)c(Cl)c2)C[C@@H]2CC[C@H]1N2C` [(1R,2S,3S)-3-(3,4-dichlorophenyl)tropane-2-O-methyl-aldoxime], the IC50 in experiment [1] (setting [5]) is 0.0018 µM. In addition, the ED50 in experiment [3] worked out at 0.4 mg/kg; in experiment [2], 0.37 mg/kg.

For `CN1[C@H]2CC[C@@H]1[C@@H](C=NO)[C@@H](c1ccc(Cl)c(Cl)c1)C2` [(1R,2S,3S)-3-(3,4-dichlorophenyl)tropane-2-aldoxime], the IC50 in experiment [1] was 0.002 µM. Further, the ED50 in experiment [3] was 0.27 mg/kg; in experiment [2] it was 0.56 mg/kg.

As to `Fc1ccc(C(OCCN2CCN(CCCc3ccccc3)CC2)c2ccc(F)cc2)cc1` [GBR 12909], the “prevention of specific binding of ^3 H-WIN 35428 in vivo” value in experiment [4] was “partly or completely prevented”.
